# Measurements reported in patent publication US20260248765A1, “TIME RELEASE SLEEP AID SYSTEM” (NightWise, LLC, priority 2017, published 2026).
# Experiment: Release time based on dissolution times of each ingredient in water
# Format: physicochemical
# Settings: soft chew composition of Table 2
# Procedure: The release time was determined based on dissolution times of each ingredient in water.
row,Compound,Release Time
1,N[C@@H](Cc1c[nH]c2ccc(O)cc12)C(=O)O [5-Hydroxytryptophan],0 min
2,NCC(=O)[O-].NCC(=O)[O-].[Mg+2] [Magnesium Glycinate],0 min
3,"COc1ccc2[nH]cc(CCNC(C)=O)c2c1 [Melatonin, reference compound]",0 min
4,NCCCC(=O)O [PHARMAGABA ™],0 min
5,"CN1c2c(nc(N)[nH]c2=O)NC[C@@H]1CNc1ccc(C(=O)N[C@@H](CCC(=O)O)C(=O)O)cc1.N[C@H]1C(O)O[C@H](CO)[C@@H](O)[C@@H]1O [QUATREFOLIC ™, (6S)-5-methyltetrahydrofolic acid, glucosamine salt]",0 min
6,Cc1cc2nc3c(=O)[nH]c(=O)nc-3n(C[C@H](O)[C@H](O)[C@H](O)COP(=O)([O-])O)c2cc1C.[Na+] [Riboflavin 5′-Phosphate Sodium],0 min

# Continued, values first:
row,Release Time,Compound
1,0 min,"Cc1ncc(COP(=O)(O)O)c(C=O)c1O.O [Vitamin B6, pyridoxal-5-phosphate monohydrate]"
2,0 min,"C/C1=C2/[N-][C@H]([C@H](CC(N)=O)[C@@]2(C)CCC(=O)NC[C@@H](C)OP(=O)([O-])O[C@H]2[C@@H](O)[C@@H](n3cnc4cc(C)c(C)cc43)O[C@@H]2CO)[C@]2(C)N=C(/C(C)=C3N=C(/C=C4N=C1[C@@H](CCC(N)=O)C\4(C)C)[C@@H](CCC(N)=O)[C@]\3(C)CC(N)=O)[C@@H](CCC(N)=O)[C@]2(C)CC(N)=O.[CH3-].[Co+3] [Vitamin B12, methylcobalamin]"
